Structures can show the parent of a compound that is named as a salt.
Molecular target: T1, IRAK4 (Homo sapiens, UniProt Q9NWZ3)
T1 sequence (Q9NWZ3 1-460): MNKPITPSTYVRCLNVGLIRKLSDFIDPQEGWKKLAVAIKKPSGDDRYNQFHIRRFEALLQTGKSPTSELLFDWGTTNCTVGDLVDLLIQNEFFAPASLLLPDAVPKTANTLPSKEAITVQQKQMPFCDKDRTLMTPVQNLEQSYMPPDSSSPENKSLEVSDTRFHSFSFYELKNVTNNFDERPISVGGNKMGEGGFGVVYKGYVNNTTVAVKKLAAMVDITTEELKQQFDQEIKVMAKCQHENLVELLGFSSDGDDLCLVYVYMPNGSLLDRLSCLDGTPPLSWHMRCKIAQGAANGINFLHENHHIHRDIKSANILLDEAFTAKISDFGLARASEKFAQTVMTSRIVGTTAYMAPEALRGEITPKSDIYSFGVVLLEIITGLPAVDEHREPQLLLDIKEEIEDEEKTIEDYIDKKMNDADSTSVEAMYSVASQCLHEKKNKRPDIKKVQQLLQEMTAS
Experiment: Degradation of IRAK4 in THP1 cells, Western blot
Format: cell-based
Parameters: Degradation of IRAK4 in THP1 by compound; host or cells: THP-1
Conditions: THP-1 cells, 24 hours of incubation; for DC50: IRAK4 protein by Western blot, read-out: DC50; for Dmax: maximum degradation rate, read-out: Dmax
Summary of the method: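 THP1 cells treated 24 h, lysed; lysates normalised by BCA, 40 μg protein per lane on 10% SDS-PAGE, anti-IRAK4 Western blot with chemiluminescence detection.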

Structure (SMILES)	DC50 [µM]	Dmax [%]
CC(C)(O)c1nn(-c2ccc(N3CCN(C4CCN(c5ccc(NC6CCC(=O)NC6=O)cc5F)CC4)CC3)cc2)cc1NC(=O)c1cncc(C#N)c1 (centres unmarked) [Compound A389, 5-Cyano-N-(1-(4-(4-(1-(4-((2,6-dioxopiperidin-3-yl)amino)-2-fluorophenyl)piperidin-4-yl)piperazin-1-yl)phenyl)-3-(2-hydroxypropan-2-yl)-1H-pyrazol-4-yl)nicotinamide]	> 1	< 40
NC(=O)c1nn(-c2ccc(N3CCN(C4CCC5(CC4)CN(c4ccc(N6CCC(=O)NC6=O)cc4)C5)CC3)cc2)cc1NC(=O)c1cccc(C(F)(F)F)n1 [Compound A391, N-(3-Carbamoyl-1-(4-(4-(2-(4-(2,4-dioxotetrahydropyrimidin-1(2H)-yl)phenyl)-2-azaspiro[3.5]nonan-7-yl)piperazin-1-yl)phenyl)-1H-pyrazol-4-yl)-6-(trifluoromethyl)picolinamide]	< 0.1	> 60
NC(=O)c1nn(-c2ccc(N3CCN(CC4CC5(CCN(c6ccc(N7CCC(=O)NC7=O)cc6)CC5)C4)CC3)cc2)cc1NC(=O)c1cccc(C(F)(F)F)n1 [Compound A392, N-(3-Carbamoyl-1-(4-(4-((7-(4-(2,4-dioxotetrahydropyrimidin-1(2H)-yl)phenyl)-7-azaspiro[3.5]nonan-2-yl)methyl)piperazin-1-yl)phenyl)-1H-pyrazol-4-yl)-6-(trifluoromethyl)picolinamide]	0.1 to 1	40 to 60
NC(=O)c1nn(-c2ccc(N3CCN(C(=O)C4CC5(CCN(c6ccc(N7CCC(=O)NC7=O)cc6)CC5)C4)CC3)cc2)cc1NC(=O)c1cccc(C(F)(F)F)n1 [Compound A394, N-(3-Carbamoyl-1-(4-(4-(7-(4-(2,4-dioxotetrahydropyrimidin-1(2H)-yl)phenyl)-7-azaspiro[3.5]nonane-2-carbonyl)piperazin-1-yl)phenyl)-1H-pyrazol-4-yl)-6-(trifluoromethyl)picolinamide]	0.1 to 1	40 to 60
NC(=O)c1nn(-c2ccc(N3CCN(CC4CCN(c5ccc(NC6CCC(=O)NC6=O)cn5)CC4)CC3)cc2)cc1NC(=O)c1cccc(C(F)(F)F)n1 (centres unmarked) [Compound A396, N-(3-Carbamoyl-1-(4-(4-((1-(5-((2,6-dioxopiperidin-3-yl)amino)pyridin-2-yl)piperidin-4-yl)methyl)piperazin-1-yl)phenyl)-1H-pyrazol-4-yl)-6-(trifluoromethyl)picolinamide]	< 0.1	> 60
NC(=O)c1nn(-c2ccc(N3CCN(CCC4CCN(C(=O)c5ccc(F)c(N6CCC(=O)NC6=O)c5)CC4)CC3)cc2)cc1NC(=O)c1cccc(C(F)(F)F)n1 [Compound A402, N-(3-Carbamoyl-1-(4-(4-(2-(1-(3-(2,4-dioxotetrahydropyrimidin-1(2H)-yl)-4-fluorobenzoyl)piperidin-4-yl)ethyl)piperazin-1-yl)phenyl)-1H-pyrazol-4-yl)-6-(trifluoromethyl)picolinamide trifluoroacetate]	< 0.1	> 60
NC(=O)c1nn([C@H]2CC[C@H](N3CCN(CC4CN(c5ccc(N6CCC(=O)NC6=O)cc5)C4)CC3)CC2)cc1NC(=O)c1cccc(C(F)(F)F)n1 [Compound A403, N-(3-Carbamoyl-1-((1r,4r)-4-(4-((1-(4-(2,4-dioxotetrahydropyrimidin-1(2H)-yl)phenyl)azetidin-3-yl)methyl)piperazin-1-yl)cyclohexyl)-1H-pyrazol-4-yl)-6-(trifluoromethyl)picolinamide]	< 0.1	40 to 60
NC(=O)c1nn(-c2ccc(N3CCN(C(=O)C4CN(c5ccc(N6CCC(=O)NC6=O)cc5)C4)CC3)cc2)cc1NC(=O)c1cccc(C(F)(F)F)n1 [Compound A409, N-(3-Carbamoyl-1-(4-(4-(1-(4-(2,4-dioxotetrahydropyrimidin-1(2H)-yl)phenyl)azetidine-3-carbonyl)piperazin-1-yl)phenyl)-1H-pyrazol-4-yl)-6-(trifluoromethyl)picolinamide]	< 0.1	> 60
NC(=O)c1nn(-c2ccc(N3CCN(C(=O)C4CN(c5cc(F)c(C6CCC(=O)NC6=O)c(F)c5)C4)CC3)cc2)cc1NC(=O)c1cccc(C(F)(F)F)n1 (centres unmarked) [Compound A411, N-(3-carbamoyl-1-(4-(4-(1-(4-(2,6-dioxopiperidin-3-yl)-3,5-difluorophenyl)azetidine-3-carbonyl)piperazin-1-yl)phenyl)-1H-pyrazol-4-yl)-6-(trifluoromethyl)picolinamide]	< 0.1	> 60
NC(=O)c1nn(-c2ccc(N3CCN(C(=O)C4CCN(c5cc(F)c(C6CCC(=O)NC6=O)c(F)c5)C4)CC3)cc2)cc1NC(=O)c1cccc(C(F)(F)F)n1 (centres unmarked) [Compound A414]	< 0.1	> 60
NC(=O)c1nn(-c2ccc(N3CCN(C(=O)C4CCN(c5ccc(OC6CCC(=O)NC6=O)cn5)CC4)CC3)cc2)cc1NC(=O)c1cccc(C(F)(F)F)n1 (centres unmarked) [Compound A415, N-(3-Carbamoyl-1-(4-(4-(1-(5-((2,6-dioxopiperidin-3-yl)oxy)pyridin-2-yl)piperidine-4-carbonyl)piperazin-1-yl)phenyl)-1H-pyrazol-4-yl)-6-(trifluoromethyl)picolinamide]	< 0.1	> 60
NC(=O)c1nn(-c2ccc(N3CCN(CC4CCN(c5ccc(OC6CCC(=O)NC6=O)cc5F)CC4)CC3)cc2)cc1NC(=O)c1cccc(C(F)(F)F)n1 (centres unmarked) [Compound A421, N-(3-Carbamoyl-1-(4-(4-((1-(4-((2,6-dioxopiperidin-3-yl)oxy)-2-fluorophenyl)piperidin-4-yl)methyl)piperazin-1-yl)phenyl)-1H-pyrazol-4-yl)-6-(trifluoromethyl)picolinamide]	< 0.1	> 60
NC(=O)c1nn(-c2ccc(N3CCN(C4CCN(c5ccc(C(=O)NC6CCC(=O)NC6=O)c(F)c5)CC4)CC3)cc2)cc1NC(=O)c1cccc(C(F)(F)F)n1 (centres unmarked) [Compound A422, N-(3-Carbamoyl-1-(4-(4-(1-(4-((2,6-dioxopiperidin-3-yl)carbamoyl)-3-fluorophenyl)piperidin-4-yl)piperazin-1-yl)phenyl)-1H-pyrazol-4-yl)-6-(trifluoromethyl)picolinamide]	< 0.1	> 60
COc1cc(NC2CCC(=O)NC2=O)ccc1N1CCC(CN2CCN(c3ccc(-n4cc(NC(=O)c5cccc(C(F)(F)F)n5)c(C(N)=O)n4)cc3)CC2)CC1 (centres unmarked) [Compound A423, N-(3-Carbamoyl-1-(4-(4-((1-(4-((2,6-dioxopiperidin-3-yl)amino)-2-methoxyphenyl)piperidin-4-yl)methyl)piperazin-1-yl)phenyl)-1H-pyrazol-4-yl)-6-(trifluoromethyl)picolinamide]	0.1 to 1	> 60
COc1cc(NC2CCC(=O)NC2=O)ccc1N1CCC(N2CCN(c3ccc(-n4cc(NC(=O)c5cccc(C(F)(F)F)n5)c(C(N)=O)n4)cc3)CC2)CC1 (centres unmarked) [Compound A425, N-(3-Carbamoyl-1-(4-(4-(1-(4-((2,6-dioxopiperidin-3-yl)amino)-2-methoxyphenyl)piperidin-4-yl)piperazin-1-yl)phenyl)-1H-pyrazol-4-yl)-6-(trifluoromethyl)picolinamide]	< 0.1	> 60
NC(=O)c1cn(-c2ccc(N3CCN(CC4CCN(c5ccc(NC6CCC(=O)NC6=O)cc5F)CC4)CC3)cc2)cc1NC(=O)c1cccc(C(F)(F)F)n1 (centres unmarked) [Compound A427, N-(4-Carbamoyl-1-(4-(4-((1-(4-((2,6-Dioxopiperidin-3-yl)amino)-2-fluorophenyl)piperidin-4-yl)methyl)piperazin-1-yl)phenyl)-1H-pyrrol-3-yl)-6-(trifluoromethyl)picolinamide]	< 0.1	> 60
NC(=O)c1cn(-c2ccc(N3CCN(C4CCN(c5ccc(NC6CCC(=O)NC6=O)cc5F)CC4)CC3)cc2)cc1NC(=O)c1cccc(C(F)(F)F)n1 (centres unmarked) [Compound A428, N-(4-Carbamoyl-1-(4-(4-(1-(4-((2,6-Dioxopiperidin-3-yl)amino)-2-fluorophenyl)piperidin-4-yl)piperazin-1-yl)phenyl)-1H-pyrrol-3-yl)-6-(trifluoromethyl)picolinamide]	< 0.1	> 60
NC(=O)c1nn(-c2ccc(N3CCN(C4CCN(c5ccc(OC6CCC(=O)NC6=O)cc5F)CC4)CC3)cc2)cc1NC(=O)c1cccc(C(F)(F)F)n1 (centres unmarked) [Compound A430, N-(3-Carbamoyl-1-(4-(4-(1-(4-((2,6-dioxopiperidin-3-yl)oxy)-2-fluorophenyl)piperidin-4-yl)piperazin-1-yl)phenyl)-1H-pyrazol-4-yl)-6-(trifluoromethyl)picolinamide]	< 0.1	> 60
NC(=O)c1nn(-c2ccc(N3CCN(C4CCN(c5ccc(NC6CCC(=O)NC6=O)cn5)CC4)CC3)cc2)cc1NC(=O)c1cccc(C(F)(F)F)n1 (centres unmarked) [Compound A432, N-(3-Carbamoyl-1-(4-(4-(1-(5-((2,6-Dioxopiperidin-3-yl)amino)pyridin-2-yl)piperidin-4-yl)piperazin-1-yl)phenyl)-1H-pyrazol-4-yl)-6-(trifluoromethyl)picolinamide]	0.1 to 1	40 to 60

From patent publication EP4763839A1 (Pamplona Therapeutics (Shenzhen) Co., Ltd., priority 2023, dated 2025)
